Experiment [1] addresses T1, Acetylcholinesterase (Homo sapiens, UniProt P22303). The experiment is described as follows: Inhibition of AChE activity.
Experiment [2] deals with T1, Acetylcholinesterase. The experiment is described as follows: Inhibition of AChE at 0.3 mM.
Experiment [3] addresses T1, Acetylcholinesterase. The experiment is described as follows: Inhibition of AChE at 0.03 mM.

T1 sequence (P22303 whole entry): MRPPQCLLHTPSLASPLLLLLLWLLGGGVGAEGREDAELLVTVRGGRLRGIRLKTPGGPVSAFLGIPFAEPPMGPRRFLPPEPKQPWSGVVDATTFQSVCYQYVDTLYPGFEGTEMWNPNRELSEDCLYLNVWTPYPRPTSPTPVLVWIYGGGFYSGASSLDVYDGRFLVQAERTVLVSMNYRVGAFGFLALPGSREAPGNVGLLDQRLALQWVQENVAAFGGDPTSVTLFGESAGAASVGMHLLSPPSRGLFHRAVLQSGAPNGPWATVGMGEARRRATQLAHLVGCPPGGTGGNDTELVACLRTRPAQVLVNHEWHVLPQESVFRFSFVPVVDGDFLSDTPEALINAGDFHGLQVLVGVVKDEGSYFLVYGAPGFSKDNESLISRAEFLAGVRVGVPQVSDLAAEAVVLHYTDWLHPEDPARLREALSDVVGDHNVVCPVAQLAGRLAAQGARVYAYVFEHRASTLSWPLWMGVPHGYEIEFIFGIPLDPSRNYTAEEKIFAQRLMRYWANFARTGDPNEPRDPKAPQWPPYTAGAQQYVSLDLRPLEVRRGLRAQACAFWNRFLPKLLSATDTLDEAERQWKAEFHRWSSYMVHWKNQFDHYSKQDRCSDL

By IC50 is commonly meant the midpoint of a concentration-inhibition curve. In general, inhibition refers to how much of the control response was suppressed. The low end stands for little suppression, the high end for strong suppression. For the molecule `COc1cc2ccnc(C(O)c3ccccc3OC)c2cc1OC` (stereo unspecified), in experiment [1], inhibition was half-maximal at 6.94 µM (IC50). Besides, in experiment [1] (concentration not given here), the inhibition turned out to be 0%.
Consider `COC(=O)N1CCc2c(OC)c(OC)c(OC)c3c2C1Cc1cc(OC)c(OC)cc1-3` (stereo unspecified), for which the inhibition in experiment [2] came to 15.9%; in experiment [3] it was 7.3%.
The molecule `COc1ccc(C(O)c2nccc3cc(OC)c(OC)cc23)cc1OC` (stereo unspecified) had an IC50 in experiment [1] of 10.7 µM.
Same read-out and setting: the same measure for `COc1ccc(Cc2nccc3cc(OC)c(OC)cc23)cc1OC` [PAPAVERINE]: 24.3 µM.

For the origin of these results see ChEMBL document CHEMBL1146949, “Isoquinoline derivatives as potential acetylcholinesterase inhibitors” (Bioorg Med Chem Lett, 2006).
